Data published in US10350210B2, “EGFR and ALK dual inhibitor” (PRECEDO PHARMACEUTICALS CO., LTD, priority 2015, dated 2019).

Experiments:
Assay type in all cases: cell-based
PC-9 = assay: Growth of cancer cells (Cell Titer-Glo viability), PC-9; conditions: Homo sapiens; PC-9 (EGFR delE746_A750 mutant), 72 hrs
Procedure, shortened: (§1)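 Cells are counted as viable by CellTiter-Glo chemiluminescence. Murine BaF3 lines depend on a stably transfected TEL-fused kinase after IL-3 withdrawal, and the NSCLC lines express mutant EGFR.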

BaF3-TEL-IGF1R = assay: Cell growth (Cell Titer-Glo viability), BaF3-TEL-IGF1R; conditions: Mus musculus; BaF3-TEL-IGF1R (stably expressing IGF1R protein), 72 hrs
Description: (§2) By testing the effect of the novel kinase inhibitors on the proliferation of cancer cells, the selectivity of the compounds of the present disclosure in inhibiting the proliferation of cancer cells was further assessed. In this example, human non-small cell lung cancer cell NCI-H1975 (expressing EGFR L858R/T790M double mutant gene), human skin squamous carcinoma cell A431 (expressing wild-type EGFR gene), non-small cell lung cancer NCI-H3255 (expressing EGFR L858R mutant gene), non-small cell lung cancer cell NCI-H3122 (expressing ALK gene), human non-small cell lung cancer cell A549 (expressing wild-type EGFR gene), human non-small cell lung cancer cell NCI-H2122 (expressing wild-type EGFR gene), human non-small cell lung cancer cell NCI-H460 (expressing wild-type EGFR gene), human non-small cell lung cancer cell PC-9 (expressing EGFR delE746_A750 mutant gene), Chinese hamster ovary cell CHO (Cricetulus griseus, hamster, Chinese, ovary), Chinese hamster lung cell CHL, human non-small cell lung cancer cell HCC827 (expressing mutant EGFR del19 gene), human lung adenocarcinoma cell HCC4006 (expressing mutant EGFR del19 gene), human non-small cell lung cancer cell NCI-H2228 (expressing wild-type ALK gene), and mouse primary B cell BaF3 were used, and the above cells were all purchased from ATCC (US). In addition, mouse BaF3-TEL-ALK (stably expressing ALK kinase), mouse BaF3-ALK-F1174L (stably expressing mutant ALK F1174L kinase), mouse BaF3-NPM-ALK (stably expressing ALK kinase), mouse BaF3-TEL-EGFR (stably expressing EGFR kinase), mouse BaF3-TEL-EGFR-T790M (stably expressing EGFR T790M mutant kinase), mouse BaF3-FL-EGFR-Del19 (stably expressing EGFR delE746_A750 mutant kinase), mouse BaF3-TEL-EGFR-L858R (stably expressing EGFR L858R mutant kinase), mouse BaF3-FL-EGFR-T790M-L858R (stably expressing EGFR T790M/L858R mutant kinase), mouse BaF3-TEL-INSR (stably expressing INSR protein), mouse BaF3-TEL-IGF1R (stably expressing IGF1R Protein), mouse BaF3-EML4-ALK (stably expressing EML4-ALK Protein), mouse BaF3-TEL-JAK3 (stably expressing JAK3 kinase protein), mouse BaF3-TEL-CSF1R (stably expressing CSF1R protein), and mouse BaF3-TEL-ALK-F1196M (stably expressing ALK F1196M mutant kinase) were also used in this example. […]
(§3) The number of viable cells was determined quantitatively by a microplate reader using Cell Titer-Glo® (Promega, US) chemiluminescence cell viability assay kit.

BaF3 = assay: Cell growth (Cell Titer-Glo viability), BaF3; conditions: BaF3 mouse primary B cell, 72 hrs
NCI-H3122 = assay: Growth of cancer cells (Cell Titer-Glo viability), NCI-H3122; conditions: Homo sapiens; NCI-H3122 (expressing ALK gene), 72 hrs; read-out: GI50
BaF3-TEL-JAK3 = assay: Cell growth (Cell Titer-Glo viability), BaF3-TEL-JAK3; conditions: Mus musculus; BaF3-TEL-JAK3 (stably expressing JAK3 kinase protein), 72 hrs
Description: (§4) By testing the effect of the novel kinase inhibitors on the proliferation of cancer cells, the selectivity of the compounds of the present disclosure in inhibiting the proliferation of cancer cells was further assessed. In this example, human non-small cell lung cancer cell NCI-H1975 (expressing EGFR L858R/T790M double mutant gene), human skin squamous carcinoma cell A431 (expressing wild-type EGFR gene), non-small cell lung cancer NCI-H3255 (expressing EGFR L858R mutant gene), non-small cell lung cancer cell NCI-H3122 (expressing ALK gene), human non-small cell lung cancer cell A549 (expressing wild-type EGFR gene), human non-small cell lung cancer cell NCI-H2122 (expressing wild-type EGFR gene), human non-small cell lung cancer cell NCI-H460 (expressing wild-type EGFR gene), human non-small cell lung cancer cell PC-9 (expressing EGFR delE746_A750 mutant gene), Chinese hamster ovary cell CHO (Cricetulus griseus, hamster, Chinese, ovary), Chinese hamster lung cell CHL, human non-small cell lung cancer cell HCC827 (expressing mutant EGFR del19 gene), human lung adenocarcinoma cell HCC4006 (expressing mutant EGFR del19 gene), human non-small cell lung cancer cell NCI-H2228 (expressing wild-type ALK gene), and mouse primary B cell BaF3 were used, and the above cells were all purchased from ATCC (US). In addition, mouse BaF3-TEL-ALK (stably expressing ALK kinase), mouse BaF3-ALK-F1174L (stably expressing mutant ALK F1174L kinase), mouse BaF3-NPM-ALK (stably expressing ALK kinase), mouse BaF3-TEL-EGFR (stably expressing EGFR kinase), mouse BaF3-TEL-EGFR-T790M (stably expressing EGFR T790M mutant kinase), mouse BaF3-FL-EGFR-Del19 (stably expressing EGFR delE746_A750 mutant kinase), mouse BaF3-TEL-EGFR-L858R (stably expressing EGFR L858R mutant kinase), mouse BaF3-FL-EGFR-T790M-L858R (stably expressing EGFR T790M/L858R mutant kinase), mouse BaF3-TEL-INSR (stably expressing INSR protein), mouse BaF3-TEL-IGF1R (stably expressing IGF1R Protein), mouse BaF3-EML4-ALK (stably expressing EML4-ALK Protein), mouse BaF3-TEL-JAK3 (stably expressing JAK3 kinase protein), mouse BaF3-TEL-CSF1R (stably expressing CSF1R protein), and mouse BaF3-TEL-ALK-F1196M (stably expressing ALK F1196M mutant kinase) were also used in this example. The above cell lines were all established by our laboratory via the following process: kinase proteins or protein domain sequences of human ALK, ALK F1174L, EGFR, EGFR T790M, EGFR delE746_A750, EGFR L858, EGFR T790M/L858R, INSR, IGF1R, EML4-ALK, JAK3, CSF1R, ALK F1196M were amplified respectively by PCR, and were respectively inserted into MSCV-Puro vector (Clontech) with N-terminal TEL fragments and/or NPM fragments and/or TPR fragments; the resultants were stably transfected into mouse BaF3 cells by the means of retrovirus, and the IL-3 growth factors were removed, and eventually the ALK, ALK F1174L, EGFR, EGFR T790M, EGFR delE746_A750, EGFR L858, EGFR T790M/L858R, INSR, IGF1R, EML4-ALK, JAK3, CSF1R, ALK F1196M-transferred protein dependent cell lines were obtained.
as §3

A549 = assay: Growth of cancer cells (Cell Titer-Glo viability), A549; conditions: Homo sapiens; A549 (wild-type EGFR), 72 hrs
BaF3-TEL-INSR = assay: Cell growth (Cell Titer-Glo viability), BaF3-TEL-INSR; conditions: Mus musculus; BaF3-TEL-INSR (stably expressing INSR protein), 72 hrs
Description: as §4, §3

BaF3-EML4-ALK = assay: Cell growth (Cell Titer-Glo viability), BaF3-EML4-ALK; conditions: Mus musculus, Ba/F3 EML4-ALK; BaF3-EML4-ALK (stably expressing EML4-ALK protein), 72 hrs
Description: as §4, §3

BaF3-TEL-EGFR-T790M = assay: Cell growth (Cell Titer-Glo viability), BaF3-TEL-EGFR-T790M; conditions: Mus musculus; BaF3-TEL-EGFR-T790M (EGFR T790M mutant kinase), 72 hrs
Procedure, shortened: (§5)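 Luminescent ATP-based viability (CellTiter-Glo) measured viable cell number after compound exposure. Engineered lines were murine BaF3 made growth-factor independent by a TEL-kinase fusion and IL-3 removal. The human lung cancer lines harbor EGFR del19 (HCC827) or EGFR L858R (NCI-H3255).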

NCI-H1975 = assay: Growth of cancer cells (Cell Titer-Glo viability), NCI-H1975; conditions: Homo sapiens; NCI-H1975 (EGFR L858R/T790M double mutant), 72 hrs
Procedure, shortened: as §1

BaF3-TEL-ALK = assay: Cell growth (Cell Titer-Glo viability), BaF3-TEL-ALK; conditions: Mus musculus; BaF3-TEL-ALK (stably expressing ALK kinase), 72 hrs
Procedure, shortened: as §5

HCC827 = assay: Growth of cancer cells (Cell Titer-Glo viability), HCC827; conditions: Homo sapiens; HCC827 (mutant EGFR del19), 72 hrs
Procedure, shortened: as §5

BaF3-TEL-CSF1R = assay: Cell growth (Cell Titer-Glo viability), BaF3-TEL-CSF1R; conditions: Mus musculus; BaF3-TEL-CSF1R (stably expressing CSF1R protein), 72 hrs
Description: as §2, §3

C=CC(=O)Nc1cc(Nc2ncc(Cl)c(Nc3ccccc3C(=O)NC)n2)c(OC)cc1N1CCN(C)CC1 [Compound 64, 2-(2-(5-acrylamido-2-methoxy-4-(4-methylpiperazin-1-yl)phenylamino)-5-chloropyrimidin-4-ylamino)-N-methylbenzamide]
GI50 (PC-9): 7.2 nM | GI50 (BaF3-TEL-IGF1R): 14 nM | GI50 (BaF3): 2900 nM | GI50 (NCI-H3122): 4.4 nM | GI50 (BaF3-TEL-JAK3): 59 nM | GI50 (A549): 370 nM | GI50 (BaF3-TEL-INSR): 2.3 nM | GI50 (BaF3-EML4-ALK): 13 nM | GI50 (BaF3-TEL-EGFR-T790M): 28 nM | GI50 (NCI-H1975): 50 nM | GI50 (BaF3-TEL-ALK): 10 nM | GI50 (HCC827): 13 nM

C=CC(=O)Nc1cc(Nc2ncc(Cl)c(Nc3ccccc3C(=O)NC)n2)c(OC)cc1N(C)CCN(C)C [Compound 71, 2-(2-(5-acrylamido-4-((2-(dimethylamino)ethyl)(methyl)amino)-2-methoxyphenylamino)-5-chloropyrimidin-4-ylamino)-N-methylbenzamide]
GI50 (PC-9): 2 nM | GI50 (BaF3-TEL-CSF1R): 150 nM | GI50 (BaF3): 940 nM | GI50 (NCI-H3122): 4.3 nM | GI50 (BaF3-TEL-JAK3): 9 nM | GI50 (BaF3-TEL-INSR): 8.4 nM | GI50 (BaF3-EML4-ALK): 12 nM | GI50 (NCI-H1975): 12 nM | GI50 (HCC827): 16 nM

C=CC(=O)Nc1cc(Nc2ncc(Cl)c(Nc3ccccc3C(=O)NC)n2)c(OC)cc1N1CCN(CC)CC1 [Compound 65]
GI50 (PC-9): 4.2 nM | GI50 (BaF3-TEL-IGF1R): 2 nM | GI50 (BaF3): 2100 nM | GI50 (NCI-H3122): 3.5 nM | GI50 (BaF3-TEL-JAK3): 45 nM | GI50 (A549): 220 nM | GI50 (BaF3-TEL-INSR): < 0.3 nM | GI50 (BaF3-EML4-ALK): 8.6 nM | GI50 (BaF3-TEL-EGFR-T790M): 30 nM | GI50 (NCI-H1975): 5.1 nM | GI50 (BaF3-TEL-ALK): 3.1 nM | GI50 (HCC827): 13 nM

C=CC(=O)Nc1cc(Nc2ncc(Cl)c(Nc3ccccc3C(=O)NC)n2)c(OC)cc1N1CCN(C2CCN(C)CC2)CC1 [Compound 72, 2-(2-(5-acrylamido-2-methoxy-4-(4-(1-methylpiperidin-4-yl)piperazin-1-yl)phenylamino)-5-chloropyrimidin-4-ylamino)-N-methylbenzamide]
GI50 (PC-9): 120 nM | GI50 (BaF3-TEL-CSF1R): 370 nM | GI50 (BaF3): 1700 nM | GI50 (NCI-H3122): 18 nM | GI50 (BaF3-TEL-JAK3): 290 nM | GI50 (BaF3-TEL-INSR): 49 nM | GI50 (BaF3-EML4-ALK): 71 nM | GI50 (NCI-H1975): 120 nM | GI50 (HCC827): 210 nM

C=CC(=O)Nc1cc(Nc2ncc(Cl)c(Nc3ccccc3C(=O)NC)n2)c(OC)cc1N1CCC(N2CCOCC2)CC1 [Compound 67, 2-(2-(5-acrylamido-2-methoxy-4-(4-morpholinylpiperidin-1-yl)phenylamino)-5-chloropyrimidin-4-ylamino)-N-methylbenzamide]
GI50 (PC-9): 9.6 nM | GI50 (BaF3-TEL-IGF1R): 7.7 nM | GI50 (BaF3): 5400 nM | GI50 (NCI-H3122): 4.4 nM | GI50 (BaF3-TEL-JAK3): 110 nM | GI50 (A549): 450 nM | GI50 (BaF3-TEL-INSR): 1.8 nM | GI50 (BaF3-EML4-ALK): 35 nM | GI50 (BaF3-TEL-EGFR-T790M): 28 nM | GI50 (NCI-H1975): 14 nM | GI50 (BaF3-TEL-ALK): 13 nM | GI50 (HCC827): 14 nM
